{
  "source": "patent US20250144138A1",
  "about": "“Chimeric Antigen Receptor Therapies and Vasoactive Intestinal Peptide Receptor Antagonists” (Emory University, priority 2021, published 2025)",
  "tested_on": "CAR T cells",
  "assay": "Proliferation of CAR T cells co-cultured with antigen-relevant target cells, treated with exogenous VIP and/or VIPR antagonist",
  "type": "cell-based",
  "description": "Experiments were performed to determine whether antigen-stimulation increases VPAC1+ CAR T cells and VIPR antagonism enhances CAR T cell proliferation in the presence of VIP. CAR T cells were co-cultured alone or with antigen-relevant or antigen-irrelevant […] for 24 hrs. VPAC1 and VPAC2 expression was evaluated via flow cytometry. […] CAR T cells co-cultured with antigen-relevant target cells were treated with exogenous VIP and/or VIPR antagonist. Proliferation of CAR T cells is suppressed by VIP and rescued by exogenous VIPR antagonist (FIGS. 2A-2C).",
  "data": [
    {"substance": "vasoactive intestinal peptide [VIP]", "values": [
      {"measurement": "Proliferation of CAR T cells", "result": "suppressed"}
    ]}
  ]
}
